Where two headings read alike, the source gives them in different places. A value given as a limit tells only on which side of the number the result lay.

In data set [1] the test system is VeroE6 cells. In words: Cytotoxicity in mock-infected VeroE6 cells (MTS assay). The note with it: read-out: MTS CC50; mock-infected VeroE6 cells, MTS assay.
Data set [2] has as its system SARS-CoV-2. To be noted: for SI (CC50/EC50) / anti-SARS-CoV-2 activity in words: VeroE6 cells; for anti-SARS-CoV-2 activity in words: SAR discussion; for potency loss / fold less active relative to compound 8 (SARS-CoV-2): relative to compound 8, VeroE6.
Data set [3] in a line: in vitro. To be noted: African green monkey.
Data set [4] has as its system SARS-CoV-2. In words: microbe, parasite or virus in culture. To be noted: Severe acute respiratory syndrome coronavirus 2, 96 h, read-out: SARS-CoV-2 EC50.
The nature of data set [5]: Cytotoxicity in mock-infected VeroE6 cells (MTS assay). The note with it: African green monkey. On the technique in general: Tetrazolium dyes change colour on reduction, which living cells bring about.

For the compound “5-[2-(1-Cyclopentylpyrrolidin-3-yl)oxyphenyl]-3-(4-pyridyl)-1,2,4-thiadiazole [Compound 49]”, the CC50 in data set [1] turned out to be 14 ± 1 µM. For the same compound, the “SI (CC50/EC50)” value in data set [2] worked out at 2.6. For the same compound, the EC50 in data set [2] (read-out: SARS-CoV-2 EC50) was determined as 5.4 ± 2.1 µM.

`c1ccc(CCN2CC[C@@H](Oc3ccccc3-c3nc(-c4ccncc4)no3)C2)cc1` [Compound 1a, 5-[2-[(3R)-1-(2-Phenylethyl)pyrrolidin-3-yl]oxyphenyl]-3-(4-pyridyl)-1,2,4-oxadiazole] registered a CC50 in data set [3] of 29 ± 24 µM. Further, the “SI (CC50/EC50)” value in data set [2] is on record as 8.1. Moreover, in data set [4], the EC50 is 3.6 ± 1.8 µM.

Consider `c1ccc(CCN2CC[C@H](Oc3ccccc3-c3nc(-c4ccncc4)no3)C2)cc1` [Compound 1b, 5-[2-[(3S)-1-(2-Phenylethyl)pyrrolidin-3-yl]oxyphenyl]-3-(4-pyridyl)-1,2,4-oxadiazole], for which, in data set [3], the CC50 was determined as 18 ± 11 µM. In addition, the “SI (CC50/EC50)” value in data set [2] is 12.8. Besides, in data set [4], the EC50 worked out at 1.4 ± 0.1 µM.

`c1ccc(-c2nc(-c3ccncc3)no2)c(OC2CCN(C3CCCC3)C2)c1` (stereo not shown) [Compound 8, 5-[2-(1-Cyclopentylpyrrolidin-3-yl)oxyphenyl]-3-(4-pyridyl)-1,2,4-oxadiazole] yielded a CC50 in data set [3] of 41 ± 25 µM. The “SI (CC50/EC50)” value in data set [2] came out at 7.6. Moreover, in data set [4], the EC50 came to 5.4 ± 3.5 µM.

As for `c1ccc(-c2nc(-c3ccncc3)no2)c(OC2CCN(CC3CCCC3)C2)c1` (stereo not shown) [Compound 9, 5-[2-[1-(Cyclopentylmethyl)pyrrolidin-3-yl]oxyphenyl]-3-(4-pyridyl)-1,2,4-oxadiazole], the CC50 in data set [3] turned out to be 24 ± 8 µM. Also, the “SI (CC50/EC50)” value in data set [2] was 15. In data set [4], the EC50 turned out to be 1.6 ± 0.8 µM.

Consider `c1ccc(-c2nc(-c3ccncc3)no2)c(OCC2CCN(C3CCCC3)C2)c1` (stereo not shown) [Compound 10, 5-[2-[(1-Cyclopentylpyrrolidin-3-yl)methoxy]phenyl]-3-(4-pyridyl)-1,2,4-oxadiazole], for which the CC50 in data set [3] is 27 ± 6 µM. The “SI (CC50/EC50)” value in data set [2] came out at 15.9. In data set [4], the EC50 came to 1.7 ± 0.3 µM.

With `c1ccc(-c2nc(-c3ccncc3)no2)c(OCC2CCN(CC3CCCC3)C2)c1` (stereo not shown) [Compound 11, 5-[2-[[1-(Cyclopentylmethyl)pyrrolidin-3-yl]methoxy]phenyl]-3-(4-pyridyl)-1,2,4-oxadiazole], the CC50 in data set [3] was > 50 µM. Besides, the “fold less active than compound 10 (SARS-CoV-2)” value in data set [2] (relative to compound 10, VeroE6) turned out to be 20 fold. Besides, the EC50 in data set [4] came to 40 ± 14 µM.

The compound `c1ccc(-c2nc(-c3ccncc3)no2)c(OC2CCN(C3CCCC3)CC2)c1` [Compound 12, 5-[2-[(1-Cyclopentyl-4-piperidyl)oxy]phenyl]-3-(4-pyridyl)-1,2,4-oxadiazole] came in with a CC50 in data set [3] of 46 ± 18 µM. In addition, the “SI (CC50/EC50)” value in data set [2] was found to be 27.1. The concentration giving a half-maximal response (EC50) in data set [4] is 1.7 ± 0.5 µM.

In data set [3], `c1ccc(-c2nc(-c3ccncc3)no2)c(OCCNC2CCCC2)c1` [Compound 13, N-[2-[2-[3-(4-Pyridyl)-1,2,4-oxadiazol-5-yl]phenoxy]ethyl]cyclopentanamine] registered a CC50 of 46 ± 13 µM. In addition, in data set [2], the “SI (CC50/EC50)” value is 5.5. Also, the concentration for a half-maximal effect (EC50) in data set [4] was found to be 8.4 ± 2.5 µM.

`CN(CCOc1ccccc1-c1nc(-c2ccncc2)no1)C1CCCC1` [Compound 14, N-Methyl-N-[2-[2-[3-(4-pyridyl)-1,2,4-oxadiazol-5-yl]phenoxy]ethyl]cyclopentanamine] displayed a CC50 in data set [3] of 37 ± 11 µM. Further, the “SI (CC50/EC50)” value in data set [2] came to 4.4. The half-maximal effective concentration (EC50) in data set [4] was 8.5 ± 4 µM.

In the case of `c1cncc(-c2noc(-c3ccccc3OC3CCN(C4CCCC4)C3)n2)c1` (stereo not shown) [Compound 23, 5-[2-(1-Cyclopentylpyrrolidin-3-yl)oxyphenyl]-3-(3-pyridyl)-1,2,4-oxadiazole], the CC50 in data set [3] was > 50 µM. Besides, in data set [2], the “SI (CC50/EC50)” value was >6 and the “anti-SARS-CoV-2 activity in words” value is given as “equipotent to 8”. Besides, in data set [4], the EC50 was 8.4 ± 5.7 µM.

With `c1ccc(-c2nc(-c3cncnc3)no2)c(OC2CCN(C3CCCC3)C2)c1` (stereo not shown) [Compound 24, 5-[2-(1-Cyclopentylpyrrolidin-3-yl)oxyphenyl]-3-pyrimidin-5-yl-1,2,4-oxadiazole], the CC50 in data set [3] was > 50 µM. Further, in data set [2], the “SI (CC50/EC50)” value was >3.3 and the “potency loss / fold less active relative to compound 8 (SARS-CoV-2)” value is listed as 3 fold. Further, in data set [4], the EC50 stood at 15 ± 2 µM.

For `c1ccc(-c2nc(-c3ccnnc3)no2)c(OC2CCN(C3CCCC3)C2)c1` (stereo not shown) [Compound 25, 5-[2-(1-Cyclopentylpyrrolidin-3-yl)oxyphenyl]-3-pyridazin-4-yl-1,2,4-oxadiazole], in data set [3], the CC50 was > 50 µM. Moreover, the “potency loss / fold less active relative to compound 8 (SARS-CoV-2)” value in data set [2] is “more than 10 fold”. Moreover, the EC50 in data set [4] is > 50 µM.

`c1ccc(-c2noc(-c3ccccc3OC3CCN(C4CCCC4)C3)n2)cc1` (stereo not shown) [Compound 26, 5-[2-(1-Cyclopentylpyrrolidin-3-yl)oxyphenyl]-3-phenyl-1,2,4-oxadiazole] showed a CC50 in data set [3] of 9 ± 2.5 µM. Also, in data set [2], the “SI (CC50/EC50)” value is on record as <1 and the “anti-SARS-CoV-2 activity in words” value was “showed only cytotoxicity”. Also, the EC50 in data set [4] was > 50 µM.

In turn, `COc1ccc(-c2noc(-c3ccccc3OC3CCN(C4CCCC4)C3)n2)cn1` (stereo not shown) [Compound 27, 5-[2-(1-Cyclopentylpyrrolidin-3-yl)oxyphenyl]-3-(6-methoxy-3-pyridyl)-1,2,4-oxadiazole] had a CC50 in data set [3] of 20 ± 5.5 µM. The “SI (CC50/EC50)” value in data set [2] was found to be 4.9. For the same compound, the EC50 in data set [4] turned out to be 4.1 ± 2.2 µM.

On to `FC(F)(F)c1cncc(-c2noc(-c3ccccc3OC3CCN(C4CCCC4)C3)n2)c1` (stereo not shown) [Compound 28, 5-[2-(1-Cyclopentylpyrrolidin-3-yl)oxyphenyl]-3-[5-(trifluoromethyl)-3-pyridyl]-1,2,4-oxadiazole], for which the CC50 in data set [3] turned out to be 10 ± 1 µM. Besides, the “SI (CC50/EC50)” value in data set [2] is 4.8. For the same compound, the EC50 in data set [4] was 2.1 ± 0.1 µM.

For `FC(F)(F)c1ccncc1-c1noc(-c2ccccc2OC2CCN(C3CCCC3)C2)n1` (stereo not shown) [Compound 29, 5-[2-(1-Cyclopentylpyrrolidin-3-yl)oxyphenyl]-3-[4-(trifluoromethyl)-3-pyridyl]-1,2,4-oxadiazole], the CC50 in data set [3] is 26 ± 7 µM. Besides, in data set [2], the “SI (CC50/EC50)” value was 8.4. In addition, the EC50 in data set [4] is 3.1 ± 1.3 µM.

The compound `Cc1ccncc1-c1noc(-c2ccccc2OC2CCN(C3CCCC3)C2)n1` (stereo not shown) [Compound 30, 5-[2-(1-Cyclopentylpyrrolidin-3-yl)oxyphenyl]-3-(4-methyl-3-pyridyl)-1,2,4-oxadiazole] displayed a CC50 in data set [3] of 47 ± 1 µM. Besides, the “SI (CC50/EC50)” value in data set [2] was determined as 33.6. Also, the EC50 in data set [4] is 1.4 ± 1 µM.

On to `Cc1cnccc1-c1noc(-c2ccccc2OC2CCN(C3CCCC3)C2)n1` (stereo not shown) [Compound 31, 5-[2-(1-Cyclopentylpyrrolidin-3-yl)oxyphenyl]-3-(3-methyl-4-pyridyl)-1,2,4-oxadiazole], for which the CC50 in data set [3] was 18 ± 9 µM. In addition, the EC50 in data set [4] came out at 1.8 ± 0.3 µM.

Consider `c1ccc(-c2noc(-c3ccncc3)n2)c(OC2CCN(C3CCCC3)C2)c1` (stereo not shown) [Compound 35, 3-[2-(1-Cyclopentylpyrrolidin-3-yl)oxyphenyl]-5-(4-pyridyl)-1,2,4-oxadiazole], for which the CC50 in data set [3] came to 30 ± 12 µM. The “SI (CC50/EC50)” value in data set [2] worked out at 4.8. In data set [4], the EC50 came out at 6.2 ± 2.7 µM.

The compound `c1ccc(-c2nnc(-c3ccncc3)o2)c(OC2CCN(C3CCCC3)C2)c1` (stereo not shown) [Compound 38, 2-[2-(1-Cyclopentylpyrrolidin-3-yl)oxyphenyl]-5-(4-pyridyl)-1,3,4-oxadiazole] registered a CC50 in data set [3] of 47 ± 15 µM. In data set [2], the “SI (CC50/EC50)” value is given as 3.1 and the “potency loss / fold less active relative to compound 8 (SARS-CoV-2)” value was 3 fold. Besides, in data set [4], the EC50 was found to be 15 ± 3 µM.

In data set [5], `c1ccc(-c2nc(-c3ccncc3)ns2)c(OC2CCN(C3CCCC3)C2)c1` (stereo not shown) [Compound 46, 5-[2-(1-Cyclopentylpyrrolidin-3-yl)oxyphenyl]-3-(4-pyridyl)-1,2,4-thiadiazole] had a CC50 of 15 ± 1 µM. Also, in data set [2], the “SI (CC50/EC50)” value is reported as 6.5. Also, in data set [4], the EC50 is 2.3 ± 0.4 µM.

Consider `N#C[C@@]1(c2ccc3c(N)ncnn23)O[C@H](CO)[C@@H](O)[C@H]1O` [GS-441524, reference compound], for which the EC50 in data set [4] turned out to be 0.82 µM.

Broadly, the EC50 is the concentration that produces a half-maximal response.
